This passage reports IC50 results from patent US20230279020A9, “CARM1 INHIBITORS AND USES THEREOF” (Epizyme, Inc., priority 2013, published 2023).

The target of this assay is Human CARM1 (PRMT4) (Homo sapiens (Human), UniProt Q86X55). Put plainly: CARM1 enzyme assay on peptide substrate (3H-SAM Flashplate). The note with it: Biochemical potencies, classification codes; read-out: Biochem IC50.
Human CARM1 (PRMT4), sequence (Q86X55 other isoform, or with tags, fused parts or gaps isoform Q86X55-1): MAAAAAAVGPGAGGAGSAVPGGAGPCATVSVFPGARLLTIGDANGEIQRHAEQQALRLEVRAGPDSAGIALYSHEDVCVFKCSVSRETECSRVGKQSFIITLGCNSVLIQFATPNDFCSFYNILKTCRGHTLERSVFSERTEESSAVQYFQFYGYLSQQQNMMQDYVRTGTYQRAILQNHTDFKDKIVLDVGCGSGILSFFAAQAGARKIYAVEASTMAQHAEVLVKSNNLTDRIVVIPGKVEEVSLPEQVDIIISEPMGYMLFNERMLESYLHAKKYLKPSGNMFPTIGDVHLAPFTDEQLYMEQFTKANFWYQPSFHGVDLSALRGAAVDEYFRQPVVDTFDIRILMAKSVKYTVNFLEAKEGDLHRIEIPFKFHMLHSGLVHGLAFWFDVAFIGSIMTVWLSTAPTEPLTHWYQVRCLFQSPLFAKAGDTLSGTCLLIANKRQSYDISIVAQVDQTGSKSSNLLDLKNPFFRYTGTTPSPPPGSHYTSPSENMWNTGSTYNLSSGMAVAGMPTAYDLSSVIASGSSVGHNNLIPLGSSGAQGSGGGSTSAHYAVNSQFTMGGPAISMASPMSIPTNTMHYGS
In general, IC50 refers to the concentration at which inhibition is half-maximal. For `CNCC(O)COc1cccc(-c2nc(-c3c(C)noc3C)c(F)c(N3CCN(C(=O)OC)CC3)n2)c1` (stereo not shown) [Example 97-1a], the IC50 is < 100 nM.
On to `CNCC(O)COc1ccc(Cl)c(-c2nc(NC3CCOCC3)c(C)c(-c3c(C)nsc3C)n2)c1` (stereo not shown) [Example 97-3], for which the IC50 was < 100 nM.
`CNCC(O)COc1cccc(-c2nc(-c3c(C)noc3C)cc(N(CCOC)C3CCOCC3)n2)c1` (stereo not shown) [Example 98-1a]: the IC50 was < 100 nM.
With `CNC[C@@H](O)COc1ccc(F)c(-c2nc(N[C@H]3CCN(C4CC4)C[C@H]3F)c(C)c(-c3c(C)noc3C)n2)c1` [Example 98-3] the figure was < 100 nM; with `CNCC(O)COc1cccc(-c2nc(NCCCN3CCCCCC3=O)cc(-c3c(C)noc3C)n2)c1` (stereo not shown) [Example 99-1a], < 100 nM.
With `CNC[C@H](O)COc1ccc(F)c(-c2nc(N[C@H]3CCN(C4CC4)C[C@H]3F)c(C)c(-c3c(C)noc3C)n2)c1` [Example 99-3] the figure was < 100 nM.
To `CNCC(O)COc1cccc(-c2nc(-c3c(C)noc3C)cc(N3C[C@H]4C[C@@H]3CN4S(C)(=O)=O)n2)c1` (stereo partly shown) [Example 100-1a] belongs < 100 nM.
`CNC[C@@H](O)COc1ccc(Cl)c(-c2nc(N[C@@H]3CCOC3)c(C)c(-c3c(C)noc3C)n2)c1` [Example 100-3]: the IC50 is < 100 nM.
Turning to `CNCC(O)COc1cccc(-c2nc(NC3(C)CCOCC3)c(C)c(-c3c(C)noc3C)n2)c1` (stereo not shown) [Example 101-1a], the IC50 is < 100 nM.
`CNC[C@@H](O)COc1ccc(Cl)c(-c2nc(N[C@@H]3CCN(C(=O)OC)[C@@H](C)C3)c(C)c(-c3c(C)noc3C)n2)c1` [Example 101-3]: the IC50 was < 100 nM.
As for `CNCC(O)COc1cccc(-c2nc(NC3CCN(C(=O)OC)CC3)cc(-c3c(C)noc3C)n2)c1` (stereo not shown) [Example 102-1a], the IC50 is < 100 nM.
Consider `CNC[C@@H](O)COc1ccc(Cl)c(-c2nc(N[C@H]3CCN(C(=O)OC)[C@H](C)C3)c(C)c(-c3c(C)noc3C)n2)c1` [Example 102-3], for which the IC50 was < 100 nM.
With `CNCC(O)COc1cccc(-c2nc(-c3c(C)noc3C)cc(N3CCN(CCF)[C@@H](C)C3)n2)c1` (stereo partly shown) [Example 103-1a] the figure was < 100 nM; with `CNC[C@H](O)COc1ccc(Cl)c(-c2nc(N[C@H]3CCN(C(=O)OC)[C@H](C)C3)c(C)c(-c3c(C)noc3C)n2)c1` [Example 103-3], < 100 nM.
In the case of `CNCC(O)COc1cccc(-c2nc(-c3c(C)noc3C)cc(N3CCN(CC(F)(F)F)[C@@H](C)C3)n2)c1` (stereo partly shown) [Example 104-1a], the IC50 was < 100 nM.
With `CNC[C@@H](O)COc1ccc(Cl)c(-c2nc(NC3CCN(C(=O)OC)CC3)c(C)c(-c3c(C)noc3C)n2)c1` [Example 104-3] the figure was < 100 nM.
With `CCOC(=O)N1CCC(Nc2nc(-c3cc(OC[C@@H](O)CNC)ccc3Cl)nc(-c3c(C)noc3C)c2C)CC1` [Example 105-3] the figure was < 100 nM; with `CCNC(=O)N1CCN(c2nc(-c3cccc(OCC(O)CNC)c3)nc(-c3c(C)noc3C)c2C)CC1` (stereo not shown) [Example 106-1a], < 100 nM.
In the case of `CNC[C@H](O)COc1ccc(F)c(-c2nc(-c3c(C)noc3C)c(C)c(N3CCC4(CCN(C(=O)OC)C4)C3)n2)c1` (stereo partly shown) [Example 106-3], the IC50 is < 100 nM.
As for `CNCC(O)COc1cccc(-c2nc(-c3c(C)noc3C)c(C)c(N3CCN(C(=O)C(F)F)CC3)n2)c1` (stereo not shown) [Example 107-1a], the IC50 was < 100 nM.
To `CNCC(O)COc1cccc(-c2nc(-c3c(C)noc3C)c(C)c(N3CCN(C(=O)C4CCOCC4)CC3)n2)c1` (stereo not shown) [Example 108-1a] belongs < 100 nM; to `CNC[C@@H](O)COc1ccc(Cl)c(-c2nc(-c3c(C)noc3C)c(C)c(N3CC4(CCN(C5CC5)CC4)C3)n2)c1` [Example 108-3], < 100 nM; to `CNCC(O)COc1cccc(-c2nc(-c3c(C)noc3C)cc(N3C[C@H]4C[C@@H]3CN4)n2)c1` (stereo partly shown) [Example 109-1a], < 100 nM.
Consider `CNCC(O)COc1cccc(-c2nc(-c3c(C)noc3C)c(C)c(N3CCN4C(=O)OC[C@@H]4C3)n2)c1` (stereo partly shown) [Example 110-1a], for which the IC50 is < 100 nM.
`CNC[C@@H](O)COc1ccc(Cl)c(-c2nc(N[C@H]3C[C@@](C)(OC)C3)c(C)c(-c3c(C)noc3C)n2)c1` [Example 110-3]: the IC50 was < 100 nM.
To `CNCC(O)COc1cccc(-c2nc(-c3c(C)noc3C)c(C)c(N3CC[C@@H](S(C)(=O)=O)C3)n2)c1` (stereo partly shown) [Example 111-1a] belongs < 100 nM.
With `CNC[C@@H](O)COc1ccc(Cl)c(-c2nc(N[C@H]3CCOC3)c(C)c(-c3c(C)noc3C)n2)c1` [Example 111-3] the figure was < 100 nM.
With `CNCC(O)COc1cccc(-c2nc(-c3c(C)noc3C)cc(-c3cnc4cnccn34)n2)c1` (stereo not shown) [Example 112-1a] the figure was < 100 nM.
Regarding `CCOC(=O)N1CC[C@@H](Nc2nc(-c3cc(OC[C@H](O)CNC)ccc3Cl)nc(-c3c(C)noc3C)c2C)C1` [Example 112-3], the IC50 was < 100 nM.
Consider `CNCC(O)COc1cccc(-c2nc(NCC3(O)CCOCC3)c(C)c(-c3c(C)noc3C)n2)c1` (stereo not shown) [Example 114-1a], for which the half-inhibitory concentration (IC50) was < 100 nM.
To `CNC[C@@H](O)COc1ccc(F)c(-c2nc(-c3c(C)noc3C)c(C)c(N3Cc4cccnc4C3)n2)c1` [Example 114-3] belongs < 100 nM; to `CNCC(O)COc1cccc(-c2nc(NCC3(C)CCOCC3)c(C)c(-c3c(C)noc3C)n2)c1` (stereo not shown) [Example 115-1a], < 100 nM.
To `CNC[C@@H](O)COc1ccc(Cl)c(-c2nc(-c3c(C)noc3C)c(C)c(N3CCC4(CC3)CN(C(=O)OC)C4)n2)c1` [Example 115-3] belongs < 100 nM; to `CNCC(O)COc1cccc(-c2nc(-c3c(C)noc3C)c(C)c(N3C[C@H]4CC[C@@H](C3)N4C)n2)c1` (stereo partly shown) [Example 116-1a], < 100 nM.
As to `CNC[C@@H](O)COc1ccc(Cl)c(-c2nc(OC[C@H]3CCCO3)c(C)c(-c3c(C)noc3C)n2)c1` [Example 116-3], the IC50 was < 100 nM.
With `CNCC(O)COc1cccc(-c2nc(-c3c(C)noc3C)c(C)c(N3[C@@H]4CC[C@H]3CN(C)C4)n2)c1` (stereo partly shown) [Example 117-1a] the figure was < 100 nM.
To `CNC[C@@H](O)COc1ccc(Cl)c(-c2nc(OC[C@H]3CCOC3)c(C)c(-c3c(C)noc3C)n2)c1` [Example 117-3] belongs < 100 nM.
`CNCC(O)COc1cccc(-c2nc(NC3CCN(C(=O)OC)CC3)c(C)c(-c3c(C)noc3C)n2)c1` (stereo not shown) [Example 118-1a]: the IC50 was < 100 nM.
For the compound `CNC[C@@H](O)COc1ccc(Cl)c(-c2nc(-c3c(C)noc3C)c(C)c(N3CC4(CCOCC4)C3)n2)c1` [Example 118-3], the IC50 was < 100 nM.
For `CNC[C@@H](O)COc1ccc(Cl)c(-c2nc(-c3c(C)noc3C)c(C)c(N3CC4(CCCOC4)C3)n2)c1` [Example 119-3], the IC50 was < 100 nM.
To `CNCC(O)COc1cccc(-c2nc(-c3c(C)noc3C)cc(N3CCN(C(=O)N(C)C)CC3)n2)c1` (stereo not shown) [Example 120-1a] belongs < 100 nM; to `CNC[C@@H](O)COc1ccc(Cl)c(-c2nc(-c3c(C)noc3C)c(C)c(N3CC4(CCOC4)C3)n2)c1` [Example 120-3], < 100 nM.
With `CNCC(O)COc1cccc(-c2nc(-c3c(C)noc3C)c(C)c(N3CCN(C(=O)OCCF)CC3)n2)c1` (stereo not shown) [Example 121-1a], the IC50 is < 100 nM.
With `CNC[C@@H](O)COc1ccc(Cl)c(-c2nc(-c3c(C)noc3C)c(C)c(N3CC4(CCCO4)C3)n2)c1` [Example 121-3] the figure was < 100 nM; with `CNC[C@@H](O)COc1ccc(Cl)c(-c2nc(-c3c(C)noc3C)c(C)c(N3CCc4nn(C)cc4C3)n2)c1` [Example 122-3], < 100 nM.
With `CNCC(O)COc1cccc(-c2nc(-c3c(C)noc3C)c(C)c(N3CCO[C@H](CNC)C3)n2)c1` (stereo partly shown) [Example 124-1a], the IC50 is < 100 nM.
Turning to `CNCC(O)COc1ccc(C)c(-c2nc(NC3CCOC(C)C3)c(C)c(-c3c(C)noc3C)n2)c1` (stereo not shown) [Example 124-3], the IC50 is < 100 nM.
To `CNCC(O)COc1cccc(-c2nc(-c3c(C)noc3C)c(C)c(N3CCO[C@H](CO)C3)n2)c1` (stereo partly shown) [Example 125-1a] belongs < 100 nM.
In the case of `CNCC(O)COc1ccc(C)c(-c2nc(NC3CCN(C(=O)OC)CC3)c(C)c(-c3c(C)noc3C)n2)c1` (stereo not shown) [Example 125-3], the IC50 was < 100 nM.
In the case of `CNCC(O)COc1cccc(-c2nc(-c3c(C)noc3C)c(C)c(N3CCO[C@H](CN(C)S(C)(=O)=O)C3)n2)c1` (stereo partly shown) [Example 126-1a], the IC50 was < 100 nM.
Take `CNC[C@@H](O)COc1ccc(Cl)c(-c2nc(OC[C@@H]3CCOC3)c(C)c(-c3c(C)noc3C)n2)c1` [Example 126-3]: the half-maximal inhibitory concentration (IC50) is < 100 nM.
Regarding `CNCC(O)COc1cccc(-c2nc(-c3c(C)noc3C)c(C)c(N3CCO[C@H](CN(C)C(=O)OC)C3)n2)c1` (stereo partly shown) [Example 127-1a], the IC50 is < 100 nM.
With `CNC[C@@H](O)COc1ccc(Cl)c(-c2nc(NC3CCOCC3)c(C)c(-c3c(C)noc3C)n2)c1` [Example 127-3] the figure was < 100 nM; with `CNC[C@@H](O)COc1ccc(Cl)c(-c2nc(N[C@H]3CCO[C@@H](C)C3)c(C)c(-c3c(C)noc3C)n2)c1` [Example 128-3], < 100 nM; with `CCOC(=O)N1CC[C@@H](Nc2nc(-c3cc(OC[C@H](O)CNC)ccc3Cl)nc(-c3c(C)noc3C)c2Cl)C1` [Example 129-3], < 100 nM.
Turning to `CNC[C@@H](O)COc1ccc(Cl)c(-c2nc(NC[C@H]3CCCO3)c(C)c(-c3c(C)noc3C)n2)c1` [Example 130-3], the IC50 was < 100 nM.
To `CNCC(O)COc1cccc(-c2nc(-c3c(C)noc3C)cc(N3CCNC(C(F)(F)F)C3)n2)c1` (stereo not shown) [Example 131-1a] belongs < 100 nM; to `CNC[C@@H](O)COc1ccc(Cl)c(-c2nc(NC[C@@H]3CCCO3)c(C)c(-c3c(C)noc3C)n2)c1` [Example 131-3], < 100 nM.
Regarding `CNCC(O)COc1cccc(-c2nc(-c3c(C)noc3C)cc(N3CCN(CC(F)(F)F)CC3)n2)c1` (stereo not shown) [Example 132-1a], the IC50 was < 100 nM.
`CNC[C@@H](O)COc1ccc(Cl)c(-c2nc(N[C@@H]3CCO[C@H](C)C3)c(C)c(-c3c(C)noc3C)n2)c1` [Example 132-3]: the concentration for half-maximal inhibition (IC50) was < 100 nM.
Turning to `CNCC(O)COc1cccc(-c2nc(-c3c(C)noc3C)cc(N3CCN(C(=O)C4CC4)CC3)n2)c1` (stereo not shown) [Example 133-1a], the IC50 is < 100 nM.
